Source: ChEMBL document CHEMBL3232895, “N-aryl-2,6-dimethylbenzamides, a new generation of tocainide analogues as blockers of skeletal muscle voltage-gated sodium channels” (J Med Chem, 2014)

Tests used:
[1] = Ratio of binding affinity to rat serum albumin assessed as fraction unbound to binding affinity to human serum albumin assessed as fraction unbound; type: ADME; conditions: isolated protein
serum albumin [2] = target: T1, serum albumin (Homo sapiens, UniProt P02768); assay: Binding affinity to human serum albumin at 30 uM by HPLC analysis; type: ADME; conditions: read-out: PB (converted)
T1 sequence (P02768 whole entry): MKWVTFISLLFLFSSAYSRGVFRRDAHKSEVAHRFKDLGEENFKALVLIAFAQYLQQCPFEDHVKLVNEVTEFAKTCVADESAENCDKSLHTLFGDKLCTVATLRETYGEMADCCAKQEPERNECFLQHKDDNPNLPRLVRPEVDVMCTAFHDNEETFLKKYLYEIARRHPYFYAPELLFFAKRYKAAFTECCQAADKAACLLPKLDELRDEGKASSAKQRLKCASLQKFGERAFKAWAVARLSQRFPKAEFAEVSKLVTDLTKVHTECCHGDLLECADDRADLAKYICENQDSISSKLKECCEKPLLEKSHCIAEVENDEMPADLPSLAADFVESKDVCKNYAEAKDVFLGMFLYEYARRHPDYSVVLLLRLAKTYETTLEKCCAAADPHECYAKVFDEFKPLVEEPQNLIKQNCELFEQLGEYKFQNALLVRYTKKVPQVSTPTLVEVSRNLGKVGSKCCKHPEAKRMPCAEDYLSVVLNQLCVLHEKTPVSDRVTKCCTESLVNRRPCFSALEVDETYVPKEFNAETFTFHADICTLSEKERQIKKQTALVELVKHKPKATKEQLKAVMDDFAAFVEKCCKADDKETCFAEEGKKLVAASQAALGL

serum albumin [3] = target: T1, serum albumin; assay: Binding affinity to human serum albumin assessed as fraction unbound at 30 uM by HPLC analysis; type: ADME
serum albumin [4] = target: T2, serum albumin (Rattus norvegicus, UniProt P02770); assay: Binding affinity to rat serum albumin assessed as fraction unbound at 30 uM by HPLC analysis; type: ADME
T2 sequence (P02770 whole entry): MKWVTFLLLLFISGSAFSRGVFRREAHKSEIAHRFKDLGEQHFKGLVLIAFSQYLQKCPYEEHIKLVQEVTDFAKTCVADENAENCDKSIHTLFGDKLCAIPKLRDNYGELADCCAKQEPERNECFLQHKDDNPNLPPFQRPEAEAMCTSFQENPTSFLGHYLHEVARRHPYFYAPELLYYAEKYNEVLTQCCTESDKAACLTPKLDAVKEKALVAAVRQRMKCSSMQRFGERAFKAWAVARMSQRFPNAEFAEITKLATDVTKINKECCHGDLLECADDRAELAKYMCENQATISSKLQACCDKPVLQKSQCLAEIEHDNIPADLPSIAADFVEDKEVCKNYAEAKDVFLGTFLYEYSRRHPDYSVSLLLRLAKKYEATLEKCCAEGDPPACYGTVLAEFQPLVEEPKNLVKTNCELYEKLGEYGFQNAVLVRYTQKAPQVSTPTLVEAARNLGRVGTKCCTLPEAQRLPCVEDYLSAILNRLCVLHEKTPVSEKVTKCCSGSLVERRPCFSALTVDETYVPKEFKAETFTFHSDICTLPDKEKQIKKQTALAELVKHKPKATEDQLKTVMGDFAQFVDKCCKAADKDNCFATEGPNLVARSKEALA

serum albumin [5] = target: T2, serum albumin; assay: Binding affinity to rat serum albumin at 30 uM by HPLC analysis; type: ADME; conditions: read-out: PB (converted)
[6] = Inhibition of voltage-gated sodium channel in Rana esculenta ventral branch of semitendinosus muscle assessed as use-dependent block at 2 Hz stimulation frequency by Hille-Campbell vaseline gap voltage-clamp recording; type: tissue-based, Pelophylax lessonae
[7] = Inhibition of voltage-gated sodium channel in Rana esculenta ventral branch of semitendinosus muscle assessed as use-dependent block at 10 Hz frequency by Hille-Campbell vaseline gap voltage-clamp recording; type: tissue-based, Pelophylax lessonae
[8] = Inhibition of voltage-gated sodium channel in Rana esculenta ventral branch of semitendinosus muscle at -70 mV of holding potential by Hille-Campbell vaseline gap voltage-clamp recording; type: tissue-based, Pelophylax lessonae
[9] = Inhibition of voltage-gated sodium channel in Rana esculenta ventral branch of semitendinosus muscle assessed as tonic block by measuring reduction of maximal peak sodium transient at holding potential -100 mV by Hille-Campbell vaseline gap voltage-clamp recording; type: tissue-based, Pelophylax lessonae
[10] = Inhibition of voltage-gated sodium channel in Rana esculenta ventral branch of semitendinosus muscle at -140 mV of holding potential by Hille-Campbell vaseline gap voltage-clamp recording; type: tissue-based, Pelophylax lessonae
Pelophylax lessonae [11] = assay: Ratio of IC50 for tonic block of voltage-gated sodium channel in Rana esculenta ventral branch of semitendinosus muscle to IC50 for use-dependent block of voltage-gated sodium channel in Rana esculenta ventral branch of semitendinosus muscle at 10 Hz frequency; type: tissue-based
[12] = Inhibition of voltage-gated sodium channel in Rana esculenta ventral branch of semitendinosus muscle assessed as tonic block at 10 Hz stimulation frequency by measuring reduction of maximal peak sodium transient by Hille-Campbell vaseline gap voltage-clamp recording; type: tissue-based, Pelophylax lessonae
Pelophylax lessonae [13] = assay: Ratio of IC50 for tonic block of voltage-gated sodium channel in Rana esculenta ventral branch of semitendinosus muscle to IC50 for use-dependent block of voltage-gated sodium channel in Rana esculenta ventral branch of semitendinosus muscle at 2 Hz frequency; type: tissue-based
Pelophylax lessonae [14] = assay: Steady state inactivation of voltage-gated sodium channel in Rana esculenta ventral branch of semitendinosus muscle at 100 uM assessed as change in potential at which 50% of sodium channel were inactivated measured at 1000 ms prepulse by Hille-Campbell vaseline gap voltage-clamp recording; type: tissue-based
Pelophylax lessonae [15] = assay: Inhibition of voltage-gated sodium channel in Rana esculenta ventral branch of semitendinosus muscle assessed as tonic block by measuring reduction of maximal peak sodium transient at 300 uM at 10 Hz stimulation frequency by Hille-Campbell vaseline gap voltage-clamp recording; type: tissue-based
Pelophylax lessonae [16] = assay: Inhibition of voltage-gated sodium channel in Rana esculenta ventral branch of semitendinosus muscle assessed as tonic block by measuring reduction of maximal peak sodium transient at 500 uM at 10 Hz stimulation frequency by Hille-Campbell vaseline gap voltage-clamp recording; type: tissue-based
serum albumin [17] = target: T1, serum albumin; assay: Binding affinity to human serum albumin; type: ADME; conditions: read-out: PB (converted)

Row | Structure (SMILES) | Ratio [1] | fraction unbound at 30 µM (serum albumin [2]) | fraction unbound at 30 µM (serum albumin [3]) | fraction unbound at 30 µM (serum albumin [4]) | fraction unbound at 30 µM (serum albumin [5]) | IC50 [6] [µM] | IC50 [7] [µM] | IC50 [8] [µM] | IC50 [9] [µM] | IC50 [10] [µM] | Ratio IC50 (Pelophylax lessonae [11]) | pIC50 [12] | Ratio IC50 (Pelophylax lessonae [13]) | Activity (Pelophylax lessonae [14]) [mV] | inhibition (Pelophylax lessonae [15]) [%] | inhibition (Pelophylax lessonae [16]) [%] | fraction unbound (serum albumin [17])
1 | Cc1cccc(C)c1NC(=O)C1CCN(Cc2ccccc2)C1 (centres undefined) | 2.27 | 0.029 | 0.0284 | 0.0644 | 0.064 | – | – | – | – | – | – | – | – | – | – | – | –
2 | Cc1cccc(C)c1NC(=O)CC(C)N (racemic) | – | – | – | – | – | 81.2 | 48.8 | 54 | 420 | 603 | 8.6 | 4.31 | 5.2 | 4.8 | 35.6 | – | –
3 | Cc1cccc(C)c1NC(=O)CC(C)NCc1ccccc1 (racemic) | – | 0.047 | 0.0474 | 0.122 | 0.121 | – | – | – | – | – | – | – | – | – | – | – | –
4 | Cc1cccc(C)c1NC(=O)CC(C)NCc1cccc2ccccc12 (racemic) | – | 0.033 | 0.033 | 0.04 | 0.04 | – | – | – | – | – | – | – | – | – | – | – | –
5 | Cc1cccc(C)c1NC(=O)C(C)N (racemic) [TOCAINIDE] | 0.86 | 0.746 | 0.746 | 0.64 | 0.64 | 350 | 248 | 254 | 523 | 985 | 2.1 | – | 1.5 | – | – | 42.6 | –
6 | O=C1CN=C(c2ccccc2Cl)c2cc([N+](=O)[O-])ccc2N1 [CLONAZEPAM] | – | 0.143 | – | – | 0.117 | – | – | – | – | – | – | – | – | – | – | – | 0.14
